Laboratory results as given in patent US9981923B2, “1,2,3 Triazole antifungal agents and preparation thereof” (COUNCIL OF SCIENTIFIC & INDUSTRIAL RESEARCH, priority 2014, dated 2018).
In brackets after ≈: the same amount, converted by molar mass. Like-named read-outs stand apart in the source and are kept apart here.

Experiments:
Assay in all cases: Antifungal susceptibility by microbroth dilution (CLSI)
Type in all cases: cell-based
C. tropicalis ATCC 750 = details: Table 2; for MIC: Candida tropicalis, ATCC750
Protocol: (§1) The synthesized compounds were evaluated for antifungal susceptibility by microbroth dilution method according to the recommendations of the Clinical Laboratory Standards Institute (CLSI 2008). Briefly, appropriate amount of compounds were dissolved in dimethyl sulfoxide to get 100× final strength. The stock was then diluted 1:50 in RPMI/YPG medium and 200 μl from this was added to the first row of a 96-well microtitre plate. The compounds were serially diluted two fold in successive wells to get a range of 1-128 μg/ml. Fungal yeast cells (˜2×10^3 cfu/mL), freshly grown in YPG broth in logarithmic phase, were suspended in the medium and inoculated (100 μl) in the wells of the plate. For filamentous fungi, 2×10^4 spores/mL were added. The microtitre plate was incubated for 48 h, and the absorbance was measured at 600 nm by using microtitre plate reader to assess cell growth.

[1] = system: Aspergillus niger ATCC 10578
Protocol: as §1

[2] = system: Aspergillus fumigatus MCC 1046
Protocol: as §1

[3] = system: Cryptococcus neoformans ATCC 34664
Protocol: as §1

[4] = system: Candida albicans ATCC 24433
Protocol: as §1

[5] = system: Candida albicans ATCC 10231
Protocol: as §1

[6] = system: Candida glabrata NCYC 388
Protocol: as §1

[7] = Aspergillus niger, ATCC10578, Table 2, read-out: MIC values
[8] = Aspergillus fumigatus, MCC1046, Table 2, read-out: MIC values
[9] = Cryptococcus neoformans, ATCC34664, Table 2, read-out: MIC values
[10] = Candida albicans, ATCC24433, Table 2, read-out: MIC values
[11] = Candida albicans, ATCC10231, Table 2, read-out: MIC values
[12] = Nakaseomyces glabratus, NCYC388, Table 2, read-out: MIC values
[13] = Table 1, 48 h, >90% inhibition of growth
[14] = Table 1, 48 h, >90% inhibition of growth, range 1-128 μg/ml

SMILES	MIC (C. tropicalis ATCC 750) [µg/mL]	MIC [1, 7] [µg/mL]	MIC [2, 8] [µg/mL]	MIC [3, 9] [µg/mL]	MIC [4, 10] [µg/mL]	further results
CC(O)(Cc1cn(-c2ccc(Cl)cc2O)nn1)c1ccc(F)cc1 (stereo not drawn) [Compound 3db, 5-Chloro-2-(4-(2-(4-fluorophenyl)-2-hydroxypropyl)-1H-1,2,3-triazol-1-yl)phenol]	128 (≈ 368 µM)	64 (≈ 184 µM)	32 (≈ 92 µM)	128 (≈ 368 µM)	16 (≈ 46 µM)	–
CC(O)(Cc1cn(-c2ccc(Cl)cc2O)nn1)c1ccc(Cl)cc1 (stereo not drawn) [Compound 3eb, 5-Chloro-2-(4-(2-(4-chlorophenyl)-2-hydroxypropyl)-1H-1,2,3-triazol-1-yl)phenol]	64 (≈ 176 µM)	64 (≈ 176 µM)	64 (≈ 176 µM)	32 (≈ 87.9 µM)	32 (≈ 87.9 µM)	MIC [5, 11]: 16 µg/mL (≈ 43.9 µM); MIC [6, 12]: 32 µg/mL (≈ 87.9 µM)
CN(C)c1ccc(C(O)Cc2cn(-c3cc(Cl)ccc3O)nn2)cc1 (stereo not drawn) [Compound 3ga, 4-Chloro-2-(4-(2-(4-(dimethylamino)phenyl)-2-hydroxyethyl)-1H-1,2,3-triazol-1-yl)phenol]	–	–	–	–	–	MIC values ([5]; Table 2): 16 µg/mL (≈ 44.6 µM); MIC values (C. tropicalis ATCC 750): >256 µg/mL; MIC values ([1]; Table 2): >256 µg/mL; MIC values ([6]; Table 2): 16 µg/mL (≈ 44.6 µM); MIC values ([2]; Table 2): >256 µg/mL; MIC values ([3]; Table 2): 64 µg/mL (≈ 178 µM); MIC values ([4]; Table 2): 64 µg/mL (≈ 178 µM)
CC(O)(Cc1cn(-c2ccc(F)cc2O)nn1)c1ccc(F)cc1F (stereo not drawn) [Compound 3ac, 2-(4-(2-(2,4-Difluorophenyl)-2-hydroxypropyl)-1H-1,2,3-triazol-1-yl)-5-fluorophenol]	128 (≈ 366 µM)	128 (≈ 366 µM)	64 (≈ 183 µM)	128 (≈ 366 µM)	8 (≈ 22.9 µM)	–
CC(O)(Cc1cn(-c2ccc(Cl)cc2O)nn1)c1ccc(F)cc1F (stereo not drawn) [Compound 3ab, 5-Chloro-2-(4-(2-(2,4-difluorophenyl)-2-hydroxypropyl)-1H-1,2,3-triazol-1-yl)phenol]	64 (≈ 175 µM)	64 (≈ 175 µM)	64 (≈ 175 µM)	32 (≈ 87.5 µM)	16 (≈ 43.7 µM)	MIC [5, 11]: 32 µg/mL (≈ 87.5 µM); MIC [6, 12]: 32 µg/mL (≈ 87.5 µM)
CC(O)(Cc1cn(-c2ccccc2O)nn1)c1ccc(Cl)cc1 (stereo not drawn) [Compound 3ed, 2-(4-(2-(4-Chlorophenyl)-2-hydroxypropyl)-1H-1,2,3-triazol-1-yl)phenol]	256 (≈ 776 µM)	128 (≈ 388 µM)	64 (≈ 194 µM)	128 (≈ 388 µM)	8 (≈ 24.3 µM)	–
CC(O)(Cc1cn(-c2cc(Cl)ccc2O)nn1)c1ccc(Cl)cc1Cl (stereo not drawn) [Compound 3ba, 4-Chloro-2-(4-(2-(2,4-dichlorophenyl)-2-hydroxypropyl)-1H-1,2,3-triazol-1-yl)phenol]	> 256	> 256	> 256	> 256	32 (≈ 80.3 µM)	–
CC(O)(Cc1cn(-c2ccc(Cl)cc2O)nn1)c1ccc(Cl)cc1Cl (stereo not drawn) [Compound 3bb, 5-Chloro-2-(4-(2-(2,4-dichlorophenyl)-2-hydroxypropyl)-1H-1,2,3-triazol-1-yl)phenol]	32 (≈ 80.3 µM)	32 (≈ 80.3 µM)	16 (≈ 40.1 µM)	8 (≈ 20.1 µM)	4 (≈ 10 µM)	MIC [5, 11]: 16 µg/mL (≈ 40.1 µM); MIC [6, 12]: 16 µg/mL (≈ 40.1 µM)
CC(O)(Cc1cn(-c2ccccc2O)nn1)c1ccc(Cl)cc1Cl (stereo not drawn) [Compound 3bd, 2-(4-(2-(2,4-Dichlorophenyl)-2-hydroxypropyl)-1H-1,2,3-triazol-1-yl)phenol]	64 (≈ 176 µM)	32 (≈ 87.9 µM)	16 (≈ 43.9 µM)	32 (≈ 87.9 µM)	8 (≈ 22 µM)	–
CC(O)(Cc1cn(-c2ccc(F)cc2O)nn1)c1ccc(F)cc1 (stereo not drawn) [Compound 3dc, 5-Fluoro-2-(4-(2-(4-fluorophenyl)-2-hydroxypropyl)-1H-1,2,3-triazol-1-yl)phenol]	> 256	256 (≈ 773 µM)	128 (≈ 386 µM)	256 (≈ 773 µM)	64 (≈ 193 µM)	–
CC(O)(Cc1cn(-c2ccc(F)cc2O)nn1)c1ccc(Cl)cc1 (stereo not drawn) [Compound 3ec, 2-(4-(2-(4-Chlorophenyl)-2-hydroxypropyl)-1H-1,2,3-triazol-1-yl)-5-fluorophenol]	128 (≈ 368 µM)	128 (≈ 368 µM)	64 (≈ 184 µM)	128 (≈ 368 µM)	8 (≈ 23 µM)	–
CC(O)(Cc1cn(-c2ccc(F)cc2O)nn1)c1ccc(Br)cc1 (stereo not drawn) [Compound 3fc, 2-(4-(2-(4-Bromophenyl)-2-hydroxypropyl)-1H-1,2,3-triazol-1-yl)-5-fluorophenol]	128 (≈ 326 µM)	128 (≈ 326 µM)	64 (≈ 163 µM)	64 (≈ 163 µM)	8 (≈ 20.4 µM)	MIC [5, 11]: 16 µg/mL (≈ 40.8 µM); MIC [6, 12]: 64 µg/mL (≈ 163 µM)
CC(O)(Cc1cn(-c2ccccc2O)nn1)c1ccc(Br)cc1 (stereo not drawn) [Compound 3fd, 2-(4-(2-(4-Bromophenyl)-2-hydroxypropyl)-1H-1,2,3-triazol-1-yl)phenol]	256 (≈ 684 µM)	128 (≈ 342 µM)	128 (≈ 342 µM)	128 (≈ 342 µM)	32 (≈ 85.5 µM)	–
CCC(O)(c1ccccc1)c1cn(-c2ccc(Cl)cc2O)nn1 (stereo not drawn) [Compound 2db]	–	–	–	–	–	MIC [5, 13]: 128 µg/mL (≈ 388 µM); MIC [1, 13]: 128 µg/mL (≈ 388 µM); MIC [6, 13]: 64 µg/mL (≈ 194 µM); MIC [2, 13]: 128 µg/mL (≈ 388 µM); MIC [3, 13]: 128 µg/mL (≈ 388 µM); MIC [4, 14]: >128 µg/mL
Oc1cc(F)ccc1-n1cc(CC(O)c2ccc(C(F)(F)F)cc2F)nn1 (stereo not drawn) [Compound 3cc, 5-Fluoro-2-(4-(2-(2-fluoro-4-(trifluoromethyl)phenyl)-2-hydroxyethyl)-1H-1,2,3-triazol-1-yl)phenol]	> 256	> 256	> 256	> 256	128 (≈ 332 µM)	–
Oc1cc(Cl)ccc1-n1cc(CC(O)c2ccc(C(F)(F)F)cc2F)nn1 (stereo not drawn) [Compound 3cb, 5-Chloro-2-(4-(2-(2-fluoro-4-(trifluoromethyl)phenyl)-2-hydroxyethyl)-1H-1,2,3-triazol-1-yl)phenol]	> 256	> 256	> 256	> 256	16 (≈ 39.8 µM)	–
CC(O)(Cc1cn(-c2cc(Cl)ccc2O)nn1)c1ccc(Br)cc1 (stereo not drawn) [Compound 3fa, 2-(4-(2-(4-Bromophenyl)-2-hydroxypropyl)-1H-1,2,3-triazol-1-yl)-4-chlorophenol]	64 (≈ 157 µM)	32 (≈ 78.3 µM)	16 (≈ 39.2 µM)	32 (≈ 78.3 µM)	4 (≈ 9.79 µM)	–
CC(O)(Cc1cn(-c2ccccc2O)nn1)c1ccc(F)cc1F (stereo not drawn) [Compound 3ad, 2-(4-(2-(2,4-Difluorophenyl)-2-hydroxypropyl)-1H-1,2,3-triazol-1-yl)phenol]	256 (≈ 773 µM)	128 (≈ 386 µM)	128 (≈ 386 µM)	128 (≈ 386 µM)	8 (≈ 24.1 µM)	–
CC(O)(Cc1cn(-c2ccccc2O)nn1)c1ccc(F)cc1 (stereo not drawn) [Compound 3dd, 2-(4-(2-(4-Fluorophenyl)-2-hydroxypropyl)-1H-1,2,3-triazol-1-yl)phenol]	> 256	256 (≈ 817 µM)	256 (≈ 817 µM)	256 (≈ 817 µM)	64 (≈ 204 µM)	–
CCCCC(O)(Cc1cn(-c2ccc(Cl)cc2O)nn1)c1ccccc1 (stereo not drawn) [Compound 2hb]	–	–	–	–	–	MIC [5, 13]: >128 µg/mL; MIC [1, 13]: >128 µg/mL; MIC [6, 13]: 64 µg/mL (≈ 172 µM); MIC [2, 13]: >128 µg/mL; MIC [3, 13]: 32 µg/mL (≈ 86.1 µM); MIC [4, 14]: 64 µg/mL (≈ 172 µM)
CCC(O)(c1ccccc1)c1cn(-c2cc(Cl)ccc2O)nn1 (stereo not drawn) [Compound 2da]	–	–	–	–	–	MIC [1, 13]: 64 µg/mL (≈ 194 µM); MIC [6, 13]: 128 µg/mL (≈ 388 µM); MIC [2, 13]: 128 µg/mL (≈ 388 µM); MIC [3, 13]: >128 µg/mL; MIC [4, 14]: 128 µg/mL (≈ 388 µM)
